Laboratory results published in patent US10980805B2, “Aza-pyridone compounds and uses thereof” (Janssen BioPharma, Inc., priority 2013, dated 2021).
pEC50, pIC50: −log10 of the molar value. Read-outs that look alike come from different tables or passages of the source.

Assays:
[1] = system: Influenza strain A549_A/WSN/33 (H1N1); assay: Influenza antiviral assay (neuraminidase fluorescence readout); type: cell-based, Influenza virus; settings: read-out: % Inhibition (EC50 class, Table 2)
[2] = biological target: Full length EN PA (influenza PA endonuclease) (Influenza A virus, UniProt P15659); assay: EN PA FRET inhibition assay; type: biochemical; settings: FRET probe, mean of a minimum of two independent experiments, read-out: Potency (IC50 class, Table 3)

CN1CC(C(c2ccc(Cl)cc2)c2cccc(Cl)c2)n2ncc(=O)c(O)c2C1=O (stereo not drawn) [Compound 60]
pEC50 ([1]; Influenza A virus): > 4.70 | pIC50 [2]: > 6.60

CN1CC(C(c2cccc(C#N)c2)c2cccc(C#N)c2)n2ncc(=O)c(O)c2C1=O (stereo not drawn) [Compound 102]
pEC50 ([1]; Influenza A virus): 4.00 to 4.70 | pIC50 [2]: > 6.60

CC#Cc1ccn([C@@H](c2ccccc2)[C@H]2CN(C)C(=O)c3c(O)c(=O)cnn32)n1 [Compound 115-B]
pEC50 ([1]; Influenza A virus): > 4.70 | pIC50 [2]: > 6.60

CN1CC(C(c2ccccc2)c2cccc(F)c2)n2ncc(=O)c(O)c2C1=O (stereo not drawn) [Compound 23]
pEC50 ([1]; Influenza A virus): > 4.70 | pIC50 [2]: > 6.60

CCN1C[C@H](C(c2ccccc2)c2cccc(Cl)c2)n2ncc(=O)c(OC(=O)c3cccnc3)c2C1=O (stereo partly drawn) [Compound 79-A]
pEC50 ([1]; Influenza A virus): > 4.70 | pIC50 [2]: > 6.60

CC(C)C(=O)Oc1c2n(ncc1=O)[C@@H](C(c1cccc(F)c1)c1cccc(F)c1)CN(C(C)C)C2=O [Compound 70-A]
pEC50 ([1]; Influenza A virus): > 4.70 | pIC50 [2]: > 6.60

C#Cc1ccn([C@@H](c2ccccc2)[C@H]2CN(C)C(=O)c3c(O)c(=O)cnn32)n1 [Compound 109-B]
pEC50 ([1]; Influenza A virus): > 4.70 | pIC50 [2]: > 6.60

CN1CC(C2c3cc(F)ccc3CCc3c(F)cccc32)n2ncc(=O)c(O)c2C1=O (stereo not drawn) [Compound 56]
pEC50 ([1]; Influenza A virus): > 4.70 | pIC50 [2]: > 6.60

CCC#Cc1ccn([C@H](c2ccccc2)[C@H]2CN(C)C(=O)c3c(O)c(=O)cnn32)n1 [Compound 122]
pEC50 ([1]; Influenza A virus): > 4.70 | pIC50 [2]: > 6.60

CCN1C[C@H]([C@@H](c2ccccc2)c2cccc(Cl)c2)n2ncc(=O)c(OC(=O)C(C)C)c2C1=O [Compound 67-A]
pEC50 ([1]; Influenza A virus): > 4.70 | pIC50 [2]: > 6.60

C[C@@H](N1C[C@@H](C2c3ccccc3CCc3ccccc32)n2ncc(=O)c(O)c2C1=O)C(F)(F)F [Compound 33-B]
pEC50 ([1]; Influenza A virus): > 4.70 | pIC50 [2]: > 6.60

O=C1c2c(O)c(=O)cnn2[C@@H](C(c2ccccc2)c2ccccc2)CN1CC1CC1 [Compound 97-A]
pEC50 ([1]; Influenza A virus): > 4.70 | pIC50 [2]: > 6.60

O=C1c2c(O)c(=O)cnn2[C@@H](C2c3ccccc3CCc3ccccc32)CN1Cc1ccccc1 [Compound 13-A]
pEC50 ([1]; Influenza A virus): > 4.70 | pIC50 [2]: > 6.60

CN1CC(C2c3ccc(F)cc3CCc3cc(F)ccc32)n2ncc(=O)c(O)c2C1=O (stereo not drawn) [Compound 89]
pEC50 ([1]; Influenza A virus): > 4.70 | pIC50 [2]: > 6.60

CCOc1c2n(ncc1=O)[C@@H](C(c1cccc(F)c1)c1cccc(F)c1)CN(CC)C2=O [Compound 85-A]
pEC50 ([1]; Influenza A virus): 4.00 to 4.70 | pIC50 [2]: ≤ 6.00

CCN1C[C@H](C2c3ccccc3CCc3ccccc32)n2ncc(=O)c(O)c2C1=O [Compound 14-A]
pEC50 ([1]; Influenza A virus): > 4.70 | pIC50 [2]: > 6.60

O=C1NCC(C2c3ccccc3CSc3c(Cl)cccc32)n2ncc(=O)c(O)c21 (stereo not drawn) [Compound 10]
pEC50 ([1]; Influenza A virus): > 4.70 | pIC50 [2]: > 6.60

CC(C)N1C[C@@H](C2c3ccccc3CCc3ccccc32)n2ncc(=O)c(O)c2C1=O [Compound 17-B]
pEC50 ([1]; Influenza A virus): > 4.70 | pIC50 [2]: > 6.60

CN1CC(C(c2ccccc2)c2cccc(CC#N)c2)n2ncc(=O)c(O)c2C1=O (stereo not drawn) [Compound 99]
pEC50 ([1]; Influenza A virus): 4.00 to 4.70 | pIC50 [2]: > 6.60

CN1CC(C(c2ccccc2)c2cccc(OC3CC3)c2)n2ncc(=O)c(O)c2C1=O (stereo not drawn) [Compound 105]
pEC50 ([1]; Influenza A virus): 4.00 to 4.70 | pIC50 [2]: > 6.60

CC(C)OC(=O)Oc1c2n(ncc1=O)[C@@H](C(c1ccccc1)c1ccccc1)CN(C(C)C)C2=O [Compound 133]
pEC50 ([1]; Influenza A virus): > 4.70 | pIC50 [2]: ≤ 6.00

CCCN1C[C@H](C(c2cccc(F)c2)c2cccc(F)c2)n2ncc(=O)c(OC(=O)C(C)C)c2C1=O [Compound 80-A]
pEC50 ([1]; Influenza A virus): > 4.70 | pIC50 [2]: > 6.60

COCC(C)(C)N1CC(C(c2ccccc2)c2ccccc2)n2ncc(=O)c(O)c2C1=O (stereo not drawn) [Compound 90]
pEC50 ([1]; Influenza A virus): > 4.70 | pIC50 [2]: > 6.60

CCN1CC(C(c2ccccc2)c2ccccc2)n2ncc(=O)c(O)c2C1=O (stereo not drawn) [Compound 5]
pEC50 ([1]; Influenza A virus): > 4.70 | pIC50 [2]: > 6.60

CN1CC(C2c3ccccc3CCc3cccnc32)n2ncc(=O)c(O)c2C1=O (stereo not drawn) [Compound 42]
pEC50 ([1]; Influenza A virus): > 4.70 | pIC50 [2]: > 6.60

CN1C[C@H](C2c3cccc(F)c3CCc3c(F)cccc32)n2ncc(=O)c(O)c2C1=O [Compound 83-A]
pEC50 ([1]; Influenza A virus): > 4.70 | pIC50 [2]: > 6.60

CC(C)N1CC(C(c2ccccc2)c2cccc(F)c2)n2ncc(=O)c(O)c2C1=O (stereo not drawn) [Compound 47]
pEC50 ([1]; Influenza A virus): > 4.70 | pIC50 [2]: > 6.60

CN1C[C@@H]([C@@H](c2ccccc2)c2ccccn2)n2ncc(=O)c(O)c2C1=O [Compound 131]
pEC50 ([1]; Influenza A virus): > 4.70 | pIC50 [2]: > 6.60

CC(C)N1CC(C(c2cccc(F)c2)c2cccc(F)c2)n2ncc(=O)c(O)c2C1=O (stereo not drawn) [Compound 41]
pEC50 ([1]; Influenza A virus): > 4.70 | pIC50 [2]: > 6.60

CC(C)N1C[C@@H](C(c2ccccc2)c2cccc(Cl)c2)n2ncc(=O)c(O)c2C1=O (single isomer, unassigned) [Compound 73-B]
pEC50 ([1]; Influenza A virus): > 4.70 | pIC50 [2]: 6.00 to 6.60

C#Cc1ccn([C@H](c2ccccc2)[C@@H]2CN(C)C(=O)c3c(O)c(=O)cnn32)n1 [Compound 109-A]
pEC50 ([1]; Influenza A virus): > 4.70 | pIC50 [2]: > 6.60

CN1CC(C(c2ccccc2)c2ccc(Cl)cc2)n2ncc(=O)c(O)c2C1=O (stereo not drawn) [Compound 32]
pEC50 ([1]; Influenza A virus): > 4.70 | pIC50 [2]: > 6.60

C[C@H](N1C[C@H](C2c3ccccc3CCc3ccccc32)n2ncc(=O)c(O)c2C1=O)C(F)(F)F [Compound 33-A]
pEC50 ([1]; Influenza A virus): > 4.70 | pIC50 [2]: > 6.60

CC(C)N1CC(C(c2ccccc2)c2cccnc2)n2ncc(=O)c(O)c2C1=O (stereo not drawn) [Compound 135]
pEC50 ([1]; Influenza A virus): > 4.70 | pIC50 [2]: > 6.60

CCN1C[C@H](C(c2cccc(F)c2)c2cccc(F)c2)n2ncc(=O)c(OCOC(=O)NC)c2C1=O [Compound 94-A]
pEC50 ([1]; Influenza A virus): 4.00 to 4.70 | pIC50 [2]: ≤ 6.00

CN1CC(C(c2ccccc2)c2ccccc2)n2ncc(=O)c(O)c2C1=O (stereo not drawn) [Compound 1]
pEC50 ([1]; Influenza A virus): > 4.70 | pIC50 [2]: > 6.60

O=C1c2c(O)c(=O)cnn2[C@@H](C(c2cccc(F)c2)c2cccc(F)c2)CN1CC1CC1 [Compound 93-A]
pEC50 ([1]; Influenza A virus): > 4.70 | pIC50 [2]: > 6.60

CN1C[C@H]([C@@H](c2ccccc2)c2cccc(OC3CC3)c2)n2ncc(=O)c(O)c2C1=O [Compound 105-A]
pEC50 ([1]; Influenza A virus): > 4.70 | pIC50 [2]: > 6.60

CC(C)CN1C[C@H](C(c2cccc(F)c2)c2cccc(F)c2)n2ncc(=O)c(O)c2C1=O [Compound 86-A]
pEC50 ([1]; Influenza A virus): > 4.70 | pIC50 [2]: > 6.60

CCCN1C[C@H](C(c2cccc(Cl)c2)c2cccc(Cl)c2)n2ncc(=O)c(O)c2C1=O [Compound 84-A]
pEC50 ([1]; Influenza A virus): > 4.70 | pIC50 [2]: > 6.60

CC(C)N1C[C@@H](C(c2ccccc2)c2ccccc2)n2ncc(=O)c(O)c2C1=O [Compound 6-B]
pEC50 ([1]; Influenza A virus): > 4.70 | pIC50 [2]: 6.00 to 6.60

CC(C)N1C[C@H](C(c2ccccc2)c2ccccc2)n2ncc(=O)c(OC(=O)C3CCCCC3)c2C1=O [Compound 112]
pEC50 ([1]; Influenza A virus): > 4.70 | pIC50 [2]: 6.00 to 6.60

CN1C[C@H]([C@H](c2ccccc2)n2ccnc2)n2ncc(=O)c(O)c2C1=O [Compound 108-B]
pEC50 ([1]; Influenza A virus): 4.00 to 4.70 | pIC50 [2]: > 6.60

CN1CC(C2c3cc(F)ccc3CCc3ccc(F)cc32)n2ncc(=O)c(O)c2C1=O (stereo not drawn) [Compound 45]
pEC50 ([1]; Influenza A virus): > 4.70 | pIC50 [2]: > 6.60

CN1C[C@@H](C2c3ccccc3CCc3ccccc32)n2ncc(=O)c(O)c2C1=O [Compound 7-B]
pEC50 ([1]; Influenza A virus): > 4.70 | pIC50 [2]: > 6.60

CN1CC(C(c2ccccc2)c2ccc(F)cc2)n2ncc(=O)c(O)c2C1=O (stereo not drawn) [Compound 40]
pEC50 ([1]; Influenza A virus): > 4.70 | pIC50 [2]: > 6.60

CN1CC(C(c2ccccc2)c2cccc(Cl)c2)n2ncc(=O)c(O)c2C1=O (stereo not drawn) [Compound 9]
pEC50 ([1]; Influenza A virus): > 4.70 | pIC50 [2]: > 6.60

CC(C)N1CC(C(c2ccccc2)c2cccc(-c3ccccc3)c2)n2ncc(=O)c(O)c2C1=O (stereo not drawn) [Compound 78]
pEC50 ([1]; Influenza A virus): > 4.70 | pIC50 [2]: > 6.60

CN1CC(C(c2ccccc2)c2cccc(O)c2)n2ncc(=O)c(O)c2C1=O (stereo not drawn) [Compound 64]
pEC50 ([1]; Influenza A virus): > 4.70 | pIC50 [2]: > 6.60

CN1CC(C2c3ccc(Cl)cc3CCc3cc(Cl)ccc32)n2ncc(=O)c(O)c2C1=O (stereo not drawn) [Compound 31]
pEC50 ([1]; Influenza A virus): > 4.70 | pIC50 [2]: > 6.60

CN1C[C@@H](C2c3ccc(Cl)cc3CCc3cc(Cl)ccc32)n2ncc(=O)c(O)c2C1=O [Compound 46-B]
pEC50 ([1]; Influenza A virus): 4.00 to 4.70 | pIC50 [2]: > 6.60

CC(C)[C@H](N)C(=O)OCOc1c2n(ncc1=O)[C@@H](C(c1ccccc1)c1ccccc1)CN(C(C)C)C2=O [Compound 96-A]
pEC50 ([1]; Influenza A virus): > 4.70 | pIC50 [2]: > 6.60

CN1CC(C2c3ccc(F)cc3CCc3c(F)cccc32)n2ncc(=O)c(O)c2C1=O (stereo not drawn) [Compound 59-A]
pEC50 ([1]; Influenza A virus): > 4.70 | pIC50 [2]: > 6.60

CN1C[C@H](C2c3cc(Cl)ccc3CCc3ccc(Cl)cc32)n2ncc(=O)c(O)c2C1=O [Compound 52-B]
pEC50 ([1]; Influenza A virus): > 4.70 | pIC50 [2]: > 6.60

CN1CC(C(c2ccc(F)cc2)c2cccc(Cl)c2)n2ncc(=O)c(O)c2C1=O (stereo not drawn) [Compound 61]
pEC50 ([1]; Influenza A virus): > 4.70 | pIC50 [2]: > 6.60

CCN1CC(C2c3ccccc3CCc3ccccc32)n2ncc(=O)c(O)c2C1=O (stereo not drawn) [Compound 14]
pEC50 ([1]; Influenza A virus): > 4.70 | pIC50 [2]: > 6.60

O=C1c2c(O)c(=O)cnn2[C@@H](C(c2cccc(F)c2)c2cccc(F)c2)CN1CCO [Compound 92-A]
pEC50 ([1]; Influenza A virus): > 4.70 | pIC50 [2]: > 6.60

CC(C)N1C[C@H](C(c2ccccc2)c2cccc(Cl)c2)n2ncc(=O)c(O)c2C1=O (single isomer, unassigned) [Compound 82-A]
pEC50 [1]: > 4.70 | pIC50 [2]: > 6.60

CN1C[C@@H](C(c2ccccc2)c2ccccc2)n2ncc(=O)c(O)c2C1=O [Compound 1-B]
pEC50 ([1]; Influenza A virus): > 4.70 | pIC50 [2]: 6.00 to 6.60

CC(C)N1C[C@H](C(c2ccccc2)c2ccccc2)n2ncc(=O)c(OC(=O)C3CCCC3)c2C1=O [Compound 119]
pEC50 ([1]; Influenza A virus): > 4.70 | pIC50 [2]: > 6.60

O=C1c2c(O)c(=O)cnn2[C@@H](C(c2ccccc2)c2ccccc2)CN1C1CCOCC1 [Compound 63-A]
pEC50 ([1]; Influenza A virus): > 4.70 | pIC50 [2]: > 6.60

CN1CC(C(c2cccc(F)c2)c2cccc(F)c2)n2ncc(=O)c(O)c2C1=O (stereo not drawn) [Compound 22]
pEC50 ([1]; Influenza A virus): > 4.70 | pIC50 [2]: > 6.60

O=C1c2c(O)c(=O)cnn2C(C2c3ccccc3CCc3ccccc32)CN1Cc1ccccc1 (stereo not drawn) [Compound 13]
pEC50 ([1]; Influenza A virus): > 4.70 | pIC50 [2]: > 6.60
